Measured values as given in US20180273531A1, “PYRIMIDINE COMPOUND AND MEDICAL USE THEREOF” (Japan Tobacco Inc., priority 2004, published 2018).

Legend:
Type in all cases: cell-based
[1] = system: Renal cancer cell line ACHN cell; assay: Growth inhibitory effect against cancer cell lines (3H-thymidine uptake), ACHN
Method: (§1) Renal cancer cell line ACHN cell or colorectal cancer cell line HT-29 cells were cultured in a 96 well plate at 1.0×10^4 cells/90 μL/well for 24 hrs, then a test substance dissolved in DMSO (dimethyl sulfoxide) was added. After 18 hrs, ^3H-thymidine (0.25 μCi/well) was added and the cells were cultured for 6 hrs. Using a cell harvester, the cells were recovered on a UniFilter-96 GF/B glass filter and the ^3H radioactivity uptaken by the cells was measured by TopCount (Packard). As a control, DMSO was used and the activity of the test substance was expressed in the concentration (IC50) necessary for inhibiting ^3H radioactivity uptaken by the cell to 50% of that of the control group. The measurements were made in triplicate.

[2] = system: colorectal cancer cell line HT-29 cells; assay: Growth inhibitory effect against cancer cell lines (3H-thymidine uptake), HT-29; settings: test substance 18 hrs, then 3H-thymidine 6 hrs, triplicate
Method: as §1

p15 protein = assay: Evaluation of p15 induction activity (Western blotting); settings: test substance 0.1 μM, 24 hrs, ACHN cells or HT-29 cells, compared to DMSO, n=2
Method: (§2) ACHN cells or HT-29 cells were cultured in a 6 well plate at 2.5×10^5 cells/1.8 mL/well for 24 hrs, then a test substance (0.1 μM) dissolved in DMSO was added. After 24 hrs, cells were detached using trypsin-EDTA (ethylene diamine tetraacetic acid) and solubilized with NuPAGE LDS sample buffer (Invitrogen). Using an RC DC protein assay kit (BIO-RAD), the protein concentration of the sample was quantitated, and a sample in an amount corresponding to 10 μg of BSA (bovine serum albumin) was analyzed by Western blotting using an anti-p15 antibody. The density of the band stained with the anti-p15 antibody was measured by a densitometer to quantify the amount of p15 protein. As a control, DMSO was used and the test was performed with n=2 and the average protein amount was determined.

p27 protein = p27 protein induction test (Western blotting); settings: test substance (0.1 1M), 24 hrs, ACHN cells or HT-29 cells, compared to DMSO, n=2
Method: as §2, with “hrs,” for “hrs, then”, “[…])” for “μM)”, “anti-p27” for “anti-p15”, “p27” for “p15”

[3] = Homo sapiens, HT-29, inhibition of 3H-thymidine uptake

| SMILES | IC50 ([1]; Homo sapiens, ACHN) | IC50 [2, 3] | IC50 ([1]; inhibition of 3H-thymidine uptake, test substance 18 hrs, then 3H-thymidine 6 hrs, triplicate) | IC50 ([2]; inhibition of 3H-thymidine uptake) | fold induction at 0.1 µM (p15 protein) | fold induction at 0.1 µM (p27 protein) | Induction of p15 protein (p15 protein) |
| --- | --- | --- | --- | --- | --- | --- | --- |
| Cc1c(=O)n(C)c(Nc2ccc(I)cc2F)c2c(=O)n(C3CC3)c(=O)n(-c3ccc4c(c3)ncn4C)c12 [Example 4-112] | – | – | 100 to 1000 nM | < 10 nM | – | – | + (As compared to DMSO, not less than 1.5-fold induction of p15 protein) |
| Cc1ccccc1-n1c(=O)n(C2CC2)c(=O)c2c(Nc3ccc(N(C)C)cc3)cc(=O)n(C)c21 [Example 1-106] | 100 to 1000 nM | 100 to 1000 nM | – | – | ≥ 1.5 | – | – |
| Cc1c(=O)n(C)c(Nc2ccc(Br)cc2)c2c(=O)n(C3CC3)c(=O)n(-c3ccccc3)c12 [Example 3-1] | 100 to 1000 nM | 100 to 1000 nM | – | – | – | – | – |
| Cn1c(=O)cc(Nc2ccc(Br)cc2F)c2c(=O)n(C3CC3)c(=O)n(-c3cccc(NS(=O)(=O)c4cccnc4)c3)c21 [Example 1-335] | 100 to 1000 nM | 10 to 100 nM | – | – | – | – | – |
| Cn1c(=O)cc(Nc2ccc(Br)cc2F)c2c(=O)n(C3CC3)c(=O)n(-c3cccc(C(N)=O)c3)c21 [Example 1-270] | 100 to 1000 nM | 10 to 100 nM | – | – | – | – | – |
| CCCCC(=O)NCC(=O)Nc1cccc(-n2c(=O)n(C3CC3)c(=O)c3c(Nc4ccc(Br)cc4F)cc(=O)n(C)c32)c1 [Example 1-276] | 100 to 1000 nM | 10 to 100 nM | – | – | – | – | – |
| Cn1c(=O)cc(Nc2ccc(Br)cc2)c2c(=O)n(C3CC3)c(=O)n(-c3ccccc3F)c21 [Example 1-113] | 100 to 1000 nM | 100 to 1000 nM | – | – | ≥ 1.5 | – | – |
| CN(C)CCOc1cccc(-n2c(=O)n(C3CC3)c(=O)c3c(Nc4ccc(Br)cc4F)cc(=O)n(C)c32)c1 [Example 1-218] | – | 10 to 100 nM | – | – | ≥ 1.5 | ≥ 1.5 | – |
| Cn1c(=O)cc(Nc2ccc(Br)cc2F)c2c(=O)n(C3CC3)c(=O)n(-c3cccc(S(C)(=O)=O)c3)c21 [Example 1-223] | 100 to 1000 nM | 10 to 100 nM | – | – | ≥ 1.5 | – | – |
| COc1ccc(-n2c(=O)n(C3CC3)c(=O)c3c(Nc4ccc(Br)cc4F)cc(=O)n(C)c32)cc1 [Example 1-186] | – | 10 to 100 nM | – | – | ≥ 1.5 | ≥ 1.5 | – |
| COc1cccc(-n2c(=O)n(C3CC3)c(=O)c3c(Nc4ccc(Br)cc4F)cc(=O)n(C)c32)c1 [Example 1-191] | 100 to 1000 nM | 10 to 100 nM | – | – | ≥ 1.5 | – | – |
| CC(=O)Nc1cc(Cl)cc(-n2c(=O)n(C3CC3)c(=O)c3c(Nc4ccc(I)cc4F)n(C)c(=O)c(C)c32)c1 [Example 4-37] | 100 to 1000 nM | 10 to 100 nM | – | – | – | – | – |
| Cc1c(=O)n(C)c(Nc2ccc(I)cc2F)c2c(=O)n(C3CC3)c(=O)n(-c3ccc(CC(=O)O)cc3)c12 [Example 4-94] | 100 to 1000 nM | 10 to 100 nM | – | – | – | – | – |
| CC(C)N1CCC(Nc2cc(=O)n(C)c3c2c(=O)n(C2CC2)c(=O)n3-c2ccccc2)CC1 [Example 1-182] | – | – | – | – | – | ≥ 1.5 | – |
| Cn1c(=O)cc(Nc2ccc(Br)cc2F)c2c(=O)n(C3CC3)c(=O)n(-c3cccc(O)c3)c21 [Example 1-213] | 100 to 1000 nM | 10 to 100 nM | – | – | ≥ 1.5 | – | – |
| CN(C)c1ccc(Nc2cc(=O)n(C)c3c2c(=O)n(C2CC2)c(=O)n3-c2ccccc2)c(F)c1 [Example 1-192] | 100 to 1000 nM | 10 to 100 nM | – | – | ≥ 1.5 | – | – |
| Cn1c(=O)cc(Nc2ccc(Br)cc2F)c2c(=O)n(C3CC3)c(=O)n(-c3cccc(OCCN4CCOCC4)c3)c21 [Example 1-232] | 100 to 1000 nM | 10 to 100 nM | – | – | – | – | – |
| Cc1cc(N(C)C)ccc1Nc1cc(=O)n(C)c2c1c(=O)n(C1CC1)c(=O)n2-c1ccccc1F [Example 1-142] | – | 100 to 1000 nM | – | – | ≥ 1.5 | ≥ 1.5 | – |
| Cn1c(=O)c2c(Nc3ccc(Br)cc3Cl)cc(=O)n(C)c2n(-c2ccccc2)c1=O [Example 1-200] | 100 to 1000 nM | 10 to 100 nM | – | – | ≥ 1.5 | – | – |
| CCOC(=O)Nc1cccc(-n2c(=O)n(C3CC3)c(=O)c3c(Nc4ccc(Br)cc4F)cc(=O)n(C)c32)c1 [Example 1-308] | 100 to 1000 nM | 10 to 100 nM | – | – | – | – | – |
| Cn1c(=O)cc(Nc2ccc(Br)cc2Cl)c2c(=O)n(C3CC3)c(=O)n(-c3ccccc3)c21 [Example 1-176] | 100 to 1000 nM | 10 to 100 nM | – | – | ≥ 1.5 | – | – |
| CCc1ccc(Nc2c3c(=O)n(CC)c(=O)n(-c4cccc(NS(=O)(=O)CC)c4)c3c(C)c(=O)n2C)c(F)c1 [Example 4-41] | 10 to 100 nM | 10 to 100 nM | – | – | – | – | – |
| COc1ccc(Nc2cc(=O)n(C)c3c2c(=O)n(C2CC2)c(=O)n3-c2ccccc2)c(F)c1 [Example 1-175] | – | 100 to 1000 nM | – | – | ≥ 1.5 | ≥ 1.5 | – |
| CC#Cc1ccc(Nc2c3c(=O)n(C4CC4)c(=O)n(-c4cccc(NC(C)=O)c4)c3c(C)c(=O)n2C)c(F)c1 [Example 4-52] | 100 to 1000 nM | 100 to 1000 nM | – | – | – | – | – |
| Cn1c(=O)cc(Nc2ccc(Br)cc2F)c2c(=O)n(C3CC3)c(=O)n(-c3ccc(O)cc3)c21 [Example 1-188] | 100 to 1000 nM | 10 to 100 nM | – | – | ≥ 1.5 | – | – |

Second part, led by results:

| IC50 ([1]; Homo sapiens, ACHN) | IC50 [2, 3] | IC50 ([1]; inhibition of 3H-thymidine uptake, test substance 18 hrs, then 3H-thymidine 6 hrs, triplicate) | IC50 ([2]; inhibition of 3H-thymidine uptake) | SMILES | fold induction at 0.1 µM (p15 protein) | fold induction at 0.1 µM (p27 protein) | Induction of p15 protein (p15 protein) |
| --- | --- | --- | --- | --- | --- | --- | --- |
| 10 to 100 nM | < 10 nM | – | – | C#Cc1ccc(Nc2cc(=O)n(C)c3c2c(=O)n(C2CC2)c(=O)n3-c2cccc(NS(=O)(=O)C(C)C)c2)c(F)c1 [Example 1-321] | ≥ 1.5 | – | – |
| 100 to 1000 nM | 10 to 100 nM | – | – | CN(C)c1cccc(-n2c(=O)n(C3CC3)c(=O)c3c(Nc4ccc(Br)cc4F)cc(=O)n(C)c32)c1 [Example 1-199] | ≥ 1.5 | – | – |
| 100 to 1000 nM | 10 to 100 nM | – | – | CN1CCN(S(=O)(=O)c2cccc(-n3c(=O)n(C4CC4)c(=O)c4c(Nc5ccc(Br)cc5F)cc(=O)n(C)c43)c2)CC1 [Example 1-315] | – | ≥ 1.5 | – |
| 100 to 1000 nM | 10 to 100 nM | – | – | Cc1c(=O)n(C)c(Nc2ccc(I)cc2F)c2c(=O)n(C3CC3)c(=O)n(-c3ccc4c(c3)ncn4C)c12 [Example 4-111] | ≥ 1.5 | – | – |
| 100 to 1000 nM | 10 to 100 nM | – | – | CN(C)CC#Cc1ccc(Nc2cc(=O)n(C)c3c2c(=O)n(C2CC2)c(=O)n3-c2ccccc2)c(F)c1 [Example 1-246] | ≥ 1.5 | – | – |
| 100 to 1000 nM | < 10 nM | – | – | Cn1c(=O)cc(Nc2ccc(Br)cc2F)c2c(=O)n(C3CC3)c(=O)n(-c3cccc(N4CCCC4=O)c3)c21 [Example 1-212] | ≥ 1.5 | – | – |
| 10 to 100 nM | < 10 nM | – | – | Cn1c(=O)cc(Nc2ccc(I)cc2F)c2c(=O)n(C3CC3)c(=O)n(-c3ccccc3)c21 [Example 1-207] | ≥ 1.5 | – | – |
| 100 to 1000 nM | 10 to 100 nM | – | – | Cn1c(=O)cc(Nc2ccc(Br)cc2F)c2c(=O)n(C3CC3)c(=O)n(-c3cccc(NS(=O)(=O)CC(F)(F)F)c3)c21 [Example 1-267] | – | – | – |
| 10 to 100 nM | < 10 nM | – | – | Cc1c(Nc2ccc(Br)cc2F)c2c(=O)n(C3CC3)c(=O)n(-c3cccc(NS(C)(=O)=O)c3)c2n(C)c1=O [Example 1-333] | ≥ 1.5 | – | – |
| 10 to 100 nM | < 10 nM | – | – | CCc1ccc(Nc2c3c(=O)n(C4CC4)c(=O)n(-c4cccc(NS(=O)(=O)CC)c4)c3c(C)c(=O)n2C)c(F)c1 [Example 4-26] | – | – | – |
| 100 to 1000 nM | < 10 nM | – | – | CN(C)c1ccc(Nc2cc(=O)n(C)c3c2c(=O)n(C2CC2)c(=O)n3-c2cccc(N3CCOCC3)c2)c(F)c1 [Example 1-205] | ≥ 1.5 | – | – |
| 10 to 100 nM | < 10 nM | – | – | C#Cc1ccc(Nc2cc(=O)n(C)c3c2c(=O)n(C2CC2)c(=O)n3-c2ccccc2)c(F)c1 [Example 1-208] | ≥ 1.5 | – | – |
| 10 to 100 nM | < 10 nM | – | – | C#Cc1ccc(Nc2c3c(=O)n(CC)c(=O)n(-c4cccc(NS(C)(=O)=O)c4)c3c(C)c(=O)n2C)c(F)c1 [Example 4-42] | – | – | – |
| < 10 nM | < 10 nM | – | – | Cc1c(=O)n(C)c(Nc2ccc(I)cc2F)c2c(=O)n(C3CC3)c(=O)n(-c3cccc(NS(=O)(=O)N(C)C)c3)c12 [Example 4-33] | – | – | – |
| < 10 nM | < 10 nM | – | – | Cc1c(=O)n(C)c(Nc2ccc(I)cc2F)c2c(=O)n(C3CC3)c(=O)n(-c3cccc(NS(=O)(=O)N4CCOCC4)c3)c12 [Example 4-34] | – | – | – |
| 100 to 1000 nM | < 10 nM | – | – | Cn1c(=O)cc(Nc2ccc(Br)cc2F)c2c(=O)n(C3CC3)c(=O)n(-c3cccc(N4CCOCC4)c3)c21 [Example 1-193] | ≥ 1.5 | – | – |
